Test results taken from publication PMC10793205, “Differential transmetallation of complexes of the anti-cancer thiosemicarbazone, Dp4e4mT: effects on anti-proliferative efficacy, redox activity, oxy-myoglobin and oxy-hemoglobin oxidation” (Chemical Science, 2023).

What was measured:
SK-N-MC and AsPC-1 cells = experiment: MTT cellular proliferation assay, values stated over both tumor cell-types; type: cell-based, human; settings: for Mean therapeutic index: average of the therapeutic indices for SK-N-MC and AsPC-1 vs MRC-5, 72 h/37 °C
Method: (§1) The anti-proliferative activity of Dp4e4mT relative to its complexes with Fe(III), Co(III), Ni(II), Cu(II), Zn(II), Ga(III), and Pd(II) was examined over incubation periods of 24-, 48-, and 72 h/37 °C (Table 2). These studies were performed using human SK-N-MC neuroepithelioma and AsPC-1 pancreatic adenocarcinoma cells that we have previously examined to assay other ligands.[15,28,43]
(§2) To examine the selectivity of the Dp4e4mT complexes against neoplastic versus normal mortal cells, their anti-proliferative efficacy was compared to mortal MRC-5 fibroblasts after a 72 h/37 °C incubation (Table 3). […] To further examine selectivity, an in vitro therapeutic index was calculated as per our previous investigations.[28,57,59,66,67] This parameter is derived from the ratio of the IC50 of MRC-5 cells/IC50 of SK-N-MC or AsPC-1 cells; with high ratios indicating greater selective anti-proliferative activity against neoplastic cells (Table 3). The mean therapeutic index is the average of the therapeutic indices calculated for both tumor cell-types. […] The mean therapeutic index of Dp4e4mT exceeded that obtained for clinically trialed DpC (157), as well as that of Dp44mT (112) and DFO (6). […]
(§3) All cell lines were procured from the American Type Culture Collection (ATCC; Manassas, VA). The SK-N-MC neuroepithelioma cell line and the mortal MRC-5 fibroblasts were cultured in minimum essential medium (Sigma-Aldrich), while the AsPC-1 cell line was cultured in Roswell Park Memorial Institute 1640 medium (Thermo Fisher Scientific, MA, USA). Both media were supplemented with 10% fetal calf serum, non-essential amino acids (1 mM), sodium pyruvate (1 mM), L-glutamine (2 mM), penicillin (100 U/mL), streptomycin (100 U/mL), and Fungizone (0.5 µg/mL). Cells were maintained at 37 °C in an incubator under a humidified atmosphere with 5% CO 2, following established protocols. 11 Cellular Proliferation Assay
(§4) Cellular proliferation was evaluated through the established 3-(4,5-dimethylthiazol-2-yl)-2,5-diphenyltetrazolium bromide (MTT) proliferation assay, validated by viable cell counts.12 […]
(§5) Ligands and complexes were dissolved in DMSO to make a stock solution of 10 mM, subsequently diluted in culture media. For cell culture experiments, the DMSO's maximum concentration remained below 0.5% (v/v), with no discernible impact on proliferation.12 MTT […]
(§6) Trypan blue staining.12 Analysis of the data was executed employing MARS Data Analysis Software (BMG LabTech; version 3.30). The concentration of agents necessary to inhibit cellular proliferation by 50% (IC 50) was then calculated. […]

MRC-5 fibroblasts = experiment: MTT cellular proliferation assay, mortal MRC-5 fibroblasts; type: cell-based; settings: 37 °C, mean ± SD (3 experiments)
Method: as §2, §3, §4, §5, §6

AsPC-1 cells = experiment: MTT cellular proliferation assay, AsPC-1 pancreatic adenocarcinoma cells; type: cell-based, human; settings: for IC50: 37 °C, MTT, mean ± SD (3 experiments); for Therapeutic index AsPC-1: IC50 of MRC-5 cells/IC50 of AsPC-1 cells, 72 h/37 °C
Method: as §1, with “ligands.[15,28,43] […]” for “ligands.[15,28,43]”
as §3, §4, §5, §6

[1] = molecular target: T1, oxy-Hb in intact human erythrocytes (Homo sapiens, UniProt P68871+P69905); experiment: Oxidation of oxy-Hb in intact human erythrocytes; type: cell-based; settings: 10 μM, 3 h/37 °C
T1 construct: Physiologically, oxy-Hb is found in erythrocytes; endogenous in cells; host or cells: intact human erythrocytes from fresh blood of healthy donors
Method: Fig. 7 (A and B) Investigation of the effects of Dp4e4mT and its Fe(III), Co(III), Ni(II), Cu(II), Zn(II), Ga(III), and Pd(II) complexes versus DFO, Dp44mT, DpC and their Fe(III) complexes (10 μM) on met-Hb generation (% zero time) after an incubation of 1–3 h/20 °C with purified oxy-Hb (40 μM). (C) Investigation of the effects of Dp4e4mT and its Fe(III), Co(III), Ni(II), Cu(II), Zn(II), Ga(III), or Pd(II) complexes relative to the positive controls DFO, Dp44mT, DpC, and their Fe(III) complexes (10 μM) on oxy-Hb oxidation in intact human erythrocytes after a 3 h/37 °C incubation. Results are mean ± SD (3 experiments).
Physiologically, oxy-Hb is found in erythrocytes, and in the current investigation, the ligands and complexes (10 μM) were incubated with intact human erythrocytes for 3 h/37 °C to assess their effects on oxy-Hb oxidation (Fig. 7C). As expected from our previous studies,[28,39] […]
In experiments examining the activity of the agents, all complexes were dissolved in 1,2-propanediol, then diluted to 10 µM in PBS (pH 7.2). […]
1800; Shimadzu, Kyoto, Japan). Concentrations of met-Mb and met-Hb, as well as reduced-Mb and reduced-Hb, were determined at 409 nm and 435 nm, respectively. Concentrations of oxy-Mb and oxy-Hb were determined at 544 nm and 582 nm, respectively. 17 Oxidation of Oxy-Hb in Human Erythrocytes
Oxidation of oxy-Hb in human erythrocytes was performed by standard methods using fresh blood from healthy donors after collection in Vacutainer® collection tubes (BD, Plymouth, UK).8 Erythrocytes centrifuged (480 xg/5 min/4°C) and then washed in HBSS, and subsequently resuspended in this buffer. Incubation of the erythrocytes (15% hematocrit) in the absence or presence of the agents (10 μM) was performed for 3 h/37°C. The erythrocytes were […]

SK-N-MC cells = experiment: MTT cellular proliferation assay, SK-N-MC neuroepithelioma cells; type: cell-based, human; settings: for IC50: SK-N-MC, 37 °C, MTT, mean ± SD (3 experiments); for Therapeutic index SK-N-MC: IC50 of MRC-5 cells/IC50 of SK-N-MC cells, 72 h/37 °C
Method: as §1, with “ligands.[15,28,43] […]” for “ligands.[15,28,43]”
as §3, §4, §5, §6

T1 sequence (P69905 2-142 limits assumed): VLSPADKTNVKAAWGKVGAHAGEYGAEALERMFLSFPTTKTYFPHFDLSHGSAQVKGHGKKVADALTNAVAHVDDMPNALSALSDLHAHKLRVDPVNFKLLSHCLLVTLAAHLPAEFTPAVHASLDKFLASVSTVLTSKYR
T1 sequence (P68871 2-147 limits assumed): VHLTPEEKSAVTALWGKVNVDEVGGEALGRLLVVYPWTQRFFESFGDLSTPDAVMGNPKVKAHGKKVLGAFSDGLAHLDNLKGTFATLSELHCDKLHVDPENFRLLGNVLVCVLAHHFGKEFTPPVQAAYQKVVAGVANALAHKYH

Compound	IC50 (SK-N-MC and AsPC-1 cells; Homo sapiens, SK-N-MC and AsPC-1, after 72 h, read-out: IC50 (range over both cell-types))	Mean therapeutic index (SK-N-MC and AsPC-1 cells)	IC50 (MRC-5 fibroblasts; Homo sapiens, MRC5, MRC-5, 72 h)	IC50 (AsPC-1 cells; Homo sapiens, ASPC1, AsPC-1, 24 h)	IC50 (AsPC-1 cells; Homo sapiens, ASPC1, AsPC-1, 48 h)	IC50 (AsPC-1 cells; Homo sapiens, ASPC1, AsPC-1, 72 h)	Therapeutic index AsPC-1 (AsPC-1 cells)	oxy-Hb oxidation in erythrocytes versus the control (in words) [1]	IC50 (SK-N-MC cells; Homo sapiens, 24 h)	IC50 (SK-N-MC cells; Homo sapiens, 48 h)	IC50 (SK-N-MC cells; Homo sapiens, 72 h)	Therapeutic index SK-N-MC (SK-N-MC cells)	IC50 (MRC-5 fibroblasts; MRC-5, 72 h)	IC50 (AsPC-1 cells; AsPC-1, 24 h)	IC50 (AsPC-1 cells; AsPC-1, 48 h)	IC50 (AsPC-1 cells; AsPC-1, 72 h)	IC50 (SK-N-MC cells; 24 h)	IC50 (SK-N-MC cells; 48 h)	IC50 (SK-N-MC cells; 72 h)
CC(=O)N(O)CCCCCNC(=O)CCC(=O)N(O)CCCCCNC(=O)CCC(=O)N(O)CCCCCN [DFO, desferrioxamine, reference compound]	3.07 to 8.18 µM	6	28.91 ± 0.101 µM	> 100 µM	22.76 ± 0.084 µM	3.07 ± 0.585 µM	9	did not induce any significant (p > 0.05) increase in oxy-Hb oxidation	> 100 µM	45.27 ± 0.061 µM	8.18 ± 2.46 µM	3							
CCN(C)C([S-])=NN=C(c1ccccn1)c1ccccn1.CCN(C)C([S-])=NN=C(c1ccccn1)c1ccccn1.[Cu+2] [[Cu(Dp4e4mT)2]]		99					113	negligible effects on oxy-Hb oxidation				85	0.342 ± 0.121 µM	1.14 ± 0.034 µM	0.044 ± 0.007 µM	0.003 ± 0.003 µM	0.516 ± 0.006 µM	0.034 ± 0.006 µM	0.004 ± 0.001 µM
